Reference: US7811688B2 (Enersol, Inc. N.A., LP, priority 2002, dated 2010)
Structures can show the parent of a compound that is named as a salt. Where two headings read alike, the source gives them in different places.

What was measured:
human nose [1] = conditions: cited from earlier work; for Olfactory Power (pOl): in air, pOl=−log [odorant] as volumetric fraction; for Olfactory Power (p. ol): Table 4
[2] = Odorant vapor pressure and odorant-hydrogen phase equilibrium (Raoult's Law)
Procedure: To quantitatively validate the concentration of an odorant in the gas phase at high pressure, first order phase equilibrium equations may be used.
It is also assumed that the odorant is saturated. This means that at the constant pressure when odorant is added, the amount of odorant in the vapor phase remains constant. The equation used to find the fraction of the vapor phase taken solely by the odorant is Raoult's Law: xAPA^sat=yAP
Where, xA is the odorant's fraction of the liquid phase, yA is the odorant's fraction of the vapor phase, PA^sat is the vapor pressure of the saturated odorant, and P is the total pressure within the system.
With these values, the concentration of odorant may be found at ambient conditions for the storage conditions of 6,000 psi. To calculate the pressure needed to produce a certain saturated concentration of odorant in the vapor phase: […]

human nose [3] = assay: Standard human olfactory power / odor threshold; type: in vivo; conditions: for Odorant Threshold: minimum detection concentration
Excerpt: Another important property of an odorant is its odor threshold. A suitable odorant should be detectable by the human nose at very low concentrations. […] To ensure simultaneous outflow in case of a leak, both components should be in the same phase and well blended. Some odor threshold values may be found in the Handbook of Hazardous Chemical Properties. In addition, the American Industrial Hygiene Association (AIHA) publishes a book of odor threshold values (Odor Thresholds for Chemicals with Established Occupational Health Standards).
Certain functional groups, such as the mercaptans, have high potency odors. According to published standardized human olfactory thresholds, mercaptans are among the strongest smelling compounds known. The stench of mercaptans is a key reason why these compounds were chosen for natural gas odorization. The following is a list of functional groups that may be used to highlight key factors for olfactory thresholds in humans. Standard olfactory power refers to the minimum concentration at which a particular compound is detectable by the average person. The mathematical definition is given as the negative log of odorant concentration expressed in volumetric fraction: pOl=−log [odorant]. Based on this definition an olfactory power of “0/6/9” corresponds to “odorlessness/1 ppm/1 ppb” threshold levels, respectively.

[4] = @ 25° C.; cited from earlier work
average weight person = conditions: cited from earlier work

For `CC(C)=O` [acetone], the “Olfactory Power (pOl)” value (human nose [1]) is listed as 4.84.

In the case of `COC(C)=O` [methyl acetate], the “Olfactory Power (pOl)” value (human nose [1]) is listed as 5.21.

In the case of `CCCl` [ethylchloride], the “‘B’ Saturated Odorant Loading [6000 psi H2]” value (“‘B’ Saturated Odorant Loading” below) ([2]; PA^sat/P × 10^6 at 6000 psi) is given as 3256 ppm, the “Olfactory Power (pOl)” value (human nose [1]) is given as 5.39 and the “Odorant Threshold” value (human nose [3]; Table 4) is given as 4.074 ppm.

In the case of `c1ccncc1` [pyridine], the “Odorant Vapor Pressure PA^SAT” value [4] is given as 0.4 psi, the “Saturated Odorant Concentration yA” value [2] is given as 67 ppm and the “maximum concentration in the vapor/gas phase” value [2] is given as 67 ppm. For the same compound, the “‘B’ Saturated Odorant Loading” value [2] was 67 ppm, the “Olfactory Power (p. ol)” value (human nose [1]) was 7.07 and the “Odorant Threshold” value (human nose [3]; Table 4) was 0.08511 ppm.

In the case of `CC(C)(C)S` [t-butyl mercaptan], the “Saturated Odorant Concentration yA” value ([2]; @ 6000 psi, 25° C.) is listed as 583 ppm, the “maximum concentration in the vapor/gas phase” value ([2]; at 6000 psi) is listed as “approximately 580 ppm” and the “Olfactory Power (pOl)” value (human nose [1]) is listed as 9.48.

For `C[Se]C` [dimethyl selenide], the “Odorant Vapor Pressure PA^SAT” value [4] is listed as 4.6 psi and the “Saturated Odorant Concentration yA” value ([2]; @ 6000 psi, 25° C.) is listed as 773 ppm.

For `CCCC` [butane], the “Olfactory Power (pOl)” value (human nose [1]) is listed as 3.69.

For `CCSC` [methylethylsulfide], the “Olfactory Power (pOl)” value (human nose [1]) is given as 8.42.

In the case of `CCCO` [Odorant 1-propanol, 1-propanol], the “Olfactory Power (pOl)” value (human nose [1]) is listed as 5.62.

In the case of `CSC` [dimethylsulfide], the “Olfactory Power (pOl)” value (human nose [1]) is given as 8.65.

For `CNC` [dimethylamine, dimethyl amine], the “Odorant Vapor Pressure PA^SAT” value [4] is given as 29.4 psi, the “Saturated Odorant Concentration yA” value [2] is given as 4892 ppm and the “‘B’ Saturated Odorant Loading” value [2] is given as 4892 ppm. For the same compound, the “Olfactory Power (pOl)” value (human nose [1]) was 7.09 and the “Odorant Threshold” value (human nose [3]; Table 4) was 0.08128 ppm.

In the case of `CC[Se]CC` [diethylselenide, diethyl selenide], the “Olfactory Power (pOl)” value (human nose [1]) is given as 9.13.

For `CCSCC` [diethylsulfide], the “Olfactory Power (pOl)” value (human nose [1]) is listed as 8.41.

In the case of `[Se]` [selenium], the “ingested quantity at which selenosis occurs” value (average weight person) is listed as 5 mg/day.

In the case of `CC=O` [acetaldehyde], the “Olfactory Power (pOl)” value (human nose [1]) is listed as 6.73.

For `CCN` [ethylamine, ethyl amine], the “Olfactory Power (pOl)” value (human nose [1]) is listed as 6.49.

In the case of `CCNCC` [diethylamine], the “Olfactory Power (pOl)” value (human nose [1]) is given as 6.73.

In the case of `CCO` [ethanol], the “‘B’ Saturated Odorant Loading” value ([2]; PA^sat/P × 10^6 at 6000 psi) is listed as 190 ppm, the “concentration in the vapor phase” value ([2]; at 6000 psi) is listed as ≤ 190 ppm and the “Olfactory Power (pOl)” value (human nose [1]) is listed as 4.54. For the same compound, the “Odorant Threshold” value (human nose [3]; Table 4) was 28.840 ppm.

With `CC[SeH]` [ethyl selenol] the “Odorant Vapor Pressure PA^SAT” value ([2]; @ 25° C., estimated value based on known vapor pressures of structurally similar compounds) was ~5 psi, the “Saturated Odorant Concentration yA” value ([2]; @ 6000 psi, 25° C.) was ~833 ppm and the “‘B’ Saturated Odorant Loading” value ([2]; PA^sat/P × 10^6 at 6000 psi) was 833 ppm. The “Olfactory Power (pOl)” value (human nose [1]) was 10.74, the “times higher detectability as compared to ethyl mercaptan” value (human nose [3]; FIG. 3) was 67 times and the “Odorant Threshold” value (human nose [3]; Table 4) was 0.000018 ppm. The detectability (human nose [3]; based on its olfactory power) was 1.8E-5 ppm.

In the case of `CC` [ethane], the “Olfactory Power (pOl)” value (human nose [1]) is listed as 2.00.

In the case of `CCS` [ethyl mercaptan], the “Odorant Vapor Pressure PA^SAT” value [4] is given as 10.2 psi, the “Saturated Odorant Concentration yA” value ([2]; @ 6000 psi, 25° C.) is given as 1705 ppm and the “‘B’ Saturated Odorant Loading” value ([2]; PA^sat/P × 10^6 at 6000 psi) is given as 1705 ppm. For the same compound, the “Olfactory Power (p. ol)” value (human nose [1]) was 8.97, the “Olfactory Power (pOl)” value (human nose [1]) was 8.97 and the “times higher detectability as compared to ethanol” value (human nose [3]; FIG. 3) was 30,000 times. For the same compound, the “Odorant Threshold” value (human nose [3]; Table 3) was 0.00107 ppm and the “Odorant Threshold” value (human nose [3]; Table 4) was 0.001072 ppm.

In the case of `CN` [methylamine, methyl amine], the “‘B’ Saturated Odorant Loading” value ([2]; PA^sat/P × 10^6 at 6000 psi) is given as 8543 ppm, the “Olfactory Power (pOl)” value (human nose [1]) is given as 7.73 and the “Odorant Threshold” value (human nose [3]; Table 4) is given as 0.01862 ppm.

In the case of `CCCN` [propylamine, propyl amine], the “Odorant Vapor Pressure PA^SAT” value [4] is given as 6.0 psi, the “Saturated Odorant Concentration yA” value ([2]; @ 6000 psi, 25° C.) is given as 999 ppm and the “‘B’ Saturated Odorant Loading” value ([2]; PA^sat/P × 10^6 at 6000 psi) is given as 999 ppm. The “Olfactory Power (pOl)” value (human nose [1]) was 7.96 and the “Odorant Threshold” value (human nose [3]; Table 4) was 0.01097 ppm.

In the case of `COC=O` [methyl formate], the “Olfactory Power (pOl)” value (human nose [1]) is given as 4.03.

In the case of `CO` [methanol], the “Olfactory Power (pOl)” value (human nose [1]) is given as 3.85.

For `CC(C)CS` [isobutyl mercaptan], the “Olfactory Power (pOl)” value (human nose [1]) is given as 8.95.

In the case of `CN(C)C` [trimethyl amine], the “Odorant Vapor Pressure PA^SAT” value [4] is listed as 31.0 psi and the “Saturated Odorant Concentration yA” value ([2]; @ 6000 psi, 25° C.) is listed as 5172 ppm.

For `CCC` [propane], the “Olfactory Power (pOl)” value (human nose [1]) is given as 2.57.

For `CS` [methyl mercaptan], the “Olfactory Power (pOl)” value (human nose [1]) is given as 8.98.
